Values quoted from earlier work as cited in publication PMC11604869, “Stereoselective block of the hERG potassium channel by the Class Ia antiarrhythmic drug disopyramide” (Cellular and Molecular Life Sciences: CMLS, 2024).

Experiments:
rabbit ventricular ITO = system: rabbit ventricular ITO; design: method as in PMID 9550298; conditions: 30 μM
rat ventricular ITO = system: rat ventricular ITO; design: method as in PMID 11327018; conditions: 100 μM
[1] = design: method as in PMID 6740739
[2] = plasma
[3] = system: rate corrected QT interval; design: method as in PMID 2439842; conditions: for effect on rate corrected QT interval: acute infusion, healthy human volunteers
hERG = system: hERG; design: method as in PMID 12466236

## CC(C)N(CCC(C(N)=O)(c1ccccc1)c1ccccn1)C(C)C (racemic) [racemic disopyramide, 4-(diisopropylamino)−2-phenyl-2-(pyridin-2-yl) butanamide]
Rabbit ventricular ITO
  reduction of rabbit ventricular ITO amplitude: ~ 33%
Rat ventricular ITO
  effect on rat ventricular ITO: no effect
[1]
  therapeutic total plasma levels: 6 to 8 µM

## CC(C)N(CC[C@@](C(N)=O)(c1ccccc1)c1ccccn1)C(C)C [R(−) disopyramide]
[2]
  unbound fractions: 0.338
[3]
  effect on rate corrected QT interval: not

## CC(C)N(CC[C@](C(N)=O)(c1ccccc1)c1ccccn1)C(C)C [S(+) disopyramide]
[2]
  unbound fractions: 0.208
[3]
  effect on rate corrected QT interval: prolongation of the rate corrected QT interval
[3]; compared with R(−) disopyramide
  negative inotropic effect in humans: smaller negative inotropic effect

## CCCCN1CCCC[C@H]1C(=O)Nc1c(C)cccc1C [levobupivacaine]
hERG
  potency of IhERG inhibition relative to dextrobupivacaine: twofold
